Patent US9999672B2, “Pharmaceutical compositions of fumaric acid esters” (XenoPort, Inc., priority 2014, dated 2018)
Like-named read-outs stand apart in the source and are kept apart here.

Legend:
[1] = assay type: physicochemical; details: 2.1 h
Protocol: Approximately 50 mg (N,N-Diethylcarbamoyl)methyl methyl (2E)but-2-ene-1,4-dioate powder was spread into a thin layer in open quartz containers. The sample was then placed in an ICH2 Photoreactor (Luzchem Research Inc.) with 16 near-UV fluorescent lamps (Hitachi FL8BL-B) installed. The near-UV light (320-400 nm) power was 94.2 watt/m^2. The sample was taken out after 2.1 hours to achieve a light exposure of 200 watt hour/m^2. The sample was prepared and analyzed the same way as described in Example 1. The amount of compound (1) found was 10.3 wt %.

[2] = assay type: physicochemical; details: 53 h
Protocol: Approximately 50 mg (N,N-diethylcarbamoyl)methyl methyl (2E)but-2-ene-1,4-dioate powder was spread into a thin layer (˜1 mm) in open quartz containers. The sample was then placed in an ICH2 Photoreactor (Luzchem Research Inc.) with 16 cool white fluorescent lamps (F8T5/CW-8 Watt) installed. The light power was 22.8×10^3 lux with low level of near UV light (320-400 nm) at 2.2 watt/m^2. The sample was taken out after 53 hours to achieve a light exposure of 1.2 million lux hours. The sample solution was prepared at 0.2 mg/mL in diluent (water/acetonitrile/H3PO4 (80/20/0.05 by volume)).
To quantify the photodegratation of the (N,N-diethylcarbamoyl)methyl methyl (2E)but-2-ene-1,4-dioate powder, the presence of (N,N-diethylcarbamoyl)methyl (1S,3S,2R,4R)-2-{[(N,N-diethylcarbamoyl)methyl]oxycarbonyl}-3,4-bis(methoxycarbonyl)cyclobutanecarboxylate (“compound (1)”) was quantified. The structure of compound (1) is shown below:
The amount (weight percent) of compound (1) in the sample was determined by reverse phase HPLC using a C18 column and a 30-minute gradient method according to Table 1 where Mobile Phase A is water/0.05% H3PO4 and Mobile Phase B is water/acetonitrile/H3PO4 (10/90/0.05 by volume) with UV detection at 210 nm. The amount of compound (1) found was 29.0 wt %.

[3] = assay type: physicochemical; details: 53 h, 0.1 mg/mL, pH 4
Protocol: A quartz flask containing approximately 20 mL of 0.1 mg/mL (N,N-diethylcarbamoyl)methyl methyl (2E)but-2-ene-1,4-dioate in 50 mM pH 4.0 citrate buffer was placed in an ICH2 Photoreactor (Luzchem Research Inc.) with 16 cool white fluorescent lamps (F8T5/CW-8 Watt) installed. The light power was 22.8×10^3 lux with low level of near UV light (320-400 nm) at 2.2 watt/m^2. The sample was taken out after 53 hours to achieve a light exposure of 1.2 million lux hours.
To quantify the photodegratation of the (N,N-diethylcarbamoyl)methyl methyl (2E)but-2-ene-1,4-dioate powder, the presence of (N,N-diethylcarbamoyl)methyl methyl (2Z)but-2-ene-1,4-dioate (“compound (2)”) was quantified. The structure for compound (2) is shown below:
The sample was analyzed using the same HPLC method as described in Example 1. The amount of compound (2) found was 22.3 wt %.

## CCN(CC)C(=O)COC(=O)/C=C/C(=O)OC [(N,N-Diethylcarbamoyl)methyl methyl (2E)but-2-ene-1,4-dioate]
[1]
  amount of compound (1) found (photodegradant): 10.3 wt %
[2]
  amount of compound (1) found (photodegradant): 29.0 wt %
[3]
  amount of compound (2) found (2Z isomer photodegradant): 22.3 wt %
